According to PubChem BioAssay (NCI):
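How tested: cells in 96-well plates exposed to compound for 48 hours at five concentrations. The concentration for full growth arrest is given as TGI.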 *1 amine or outer side, *2 acyl side, *3 side chain or, on linkers, in order; H or OH if unused. Where a SMILES comes first, the peptide text is derived from it. [ ]: non-standard residue; d: D form. The star is where a group is joined. ξ: configuration not given here. X27 = O=C([C@H]1CCC[C@H]1N[*:1])[*:2]; ξW = NC(Cc1c[nH]c2ccccc12)C(=O)O; ξF = NC(Cc1ccccc1)C(=O)O; Boc = CC(C)(C)OC(=O)*; ξK = NCCCCC(N)C(=O)O; ξT = CC(O)C(N)C(=O)O; tBu = CC(C)(C)*

Key:
Test in all cases: NCI-60 cell line screen, 48 h
[1] = test system: IGROV1 ovarian
[2] = test system: 786-0 renal
[3] = test system: NCI/ADR-RES ovarian
[4] = test system: M19-MEL melanoma
[5] = test system: KM20L2 colon
[6] = test system: SNB-78 CNS
[7] = test system: XF 498 CNS
[8] = test system: LXFL 529 NSCLC
[9] = test system: DLD-1 colon
[10] = test system: DMS 114 small cell lung
[11] = test system: DMS 273 small cell lung

Structure (SMILES)	TGI [1]	TGI [2]	TGI [3]	other results
C=CCc1[nH]c2c(OCc3ccccc3)cc(N(CC=C)C(C)=O)cc2c1C	28 µM	28 µM	31 µM	–
COc1ccc(OC)c(CSc2ccc(OC)c(OC)c2)c1	> 100 µM	> 100 µM	> 100 µM	–
CCCCCC1CC=CC(=O)O1 (centres undefined)	17.7 µM	15.2 µM	25.6 µM	–
Cc1ccc2c(=O)cc(Cc3cccs3)[nH]c2n1	> 100 µM	> 100 µM	> 100 µM	–
CC1(C)CC(O)C2=C(O1)C(=O)c1ncccc1C2=O (centres undefined)	6.14 µM	3.62 µM	–	–
CC1=NN(C(=O)c2ccccc2O)C(=O)/C1=C/c1cccc(O)c1	–	> 100 µM	> 100 µM	TGI [4]: > 100 µM; TGI [5]: > 100 µM; TGI [6]: > 100 µM; TGI [7]: > 100 µM; TGI [8]: > 100 µM; TGI [9]: > 100 µM
Cc1ccc(S(=O)(=O)CN2C(=O)C(c3ccccc3)(c3ccccc3)C23OC(c2ccc(Cl)cc2)=CC3=O)cc1 (centres undefined)	> 10 µM	> 10 µM	> 10 µM	–
Cn1c(NNc2ccccc2)cc(=O)[nH]c1=O	> 100 µM	44.2 µM	> 100 µM	–
OCc1cc2c(ccc3sc4ccc5sc6ccc7ncccc7c6c5c4c32)s1	26.4 µM	15.1 µM	82.5 µM	–
Cc1ccc(/C=N/n2c(Cc3ccccc3)n[nH]c2=O)cc1	> 100 µM	> 100 µM	> 100 µM	–
C=C1CCCC2[C@](C)(CC3=C(Cl)C(=O)C=C(OC)C3=O)C(C)CC[C@]12C (some centres undefined)	4.76 µM	6.53 µM	33.2 µM	–
C=CCNC(=S)N=Nc1c(O)n(CN2CCOCC2)c2ccc([N+](=O)[O-])cc12	> 100 µM	> 100 µM	> 100 µM	–
Cc1c(C)c(C)c(CC2(C)CSC2)c(CC2(C)CSC2)c1C	> 100 µM	> 100 µM	> 100 µM	–
Cc1[nH]c(=O)nc2c1C(NCCCN(C)C)c1cc(Cl)ccc1N2 (centres undefined)	30.1 µM	27.7 µM	–	TGI [10]: 28.2 µM; TGI [4]: 12.9 µM; TGI [5]: 24.4 µM; TGI [6]: 33.2 µM; TGI [7]: 30.8 µM; TGI [11]: 25.3 µM; TGI [8]: 30.6 µM; TGI [9]: 35.3 µM
Nc1ccc2nc3c(nc2c1)C(=O)c1ccccc1-3	> 100 µM	> 100 µM	> 100 µM	–
CC(=O)OCC(C)C1=C(OC(C)=O)C(=O)C2(C)C/C=C(/C)CC/C=C(\C)CCC(OC(C)=O)C(C)CCC12 (centres undefined)	48.3 µM	28.1 µM	–	–
CCCC(=O)NC(Nc1cc(C)ccn1)(C(=O)OCC)C(F)(F)F (centres undefined)	> 100 µM	> 100 µM	> 100 µM	–
O=C(O)CSC(CC1(c2ccc(Cl)cc2)NC(=O)CS1)c1ccc(Cl)cc1 (centres undefined)	> 100 µM	> 100 µM	> 100 µM	–
CCCC(=O)Nc1cc(/C=C/C(=O)N2CC(CCl)c3c2cc(OCc2ccccc2)c2[nH]cc(C)c32)n(C)c1 (centres undefined)	> 25 µM	2.89 µM	0.182 µM	–
CC(=O)OC(CN1CCN(c2ccccn2)CC1)Cn1sc2nc(C)cc(C)c2c1=O (centres undefined)	33.4 µM	28.1 µM	67.1 µM	–

Structure (SMILES)	TGI [1]	TGI [2]	TGI [3]	other results
O=C(c1cc2ccccc2[nH]1)N1C2CCC1CN(CCOC(c1ccc(F)cc1)c1ccc(F)cc1)CC2 (centres undefined)	> 100 µM	> 100 µM	> 100 µM	–
CC(OC(C)(C)C)C1NC(=O)C(CCCCNC(=O)OC(C)(C)C)NC(=O)C(Cc2c[nH]c3ccccc23)NC(=O)C(Cc2ccccc2)NC(=O)[C@H]2CCC[C@H]2NC(=O)C(Cc2ccccc2)NC1=O (some centres undefined) (cyclo([X27][ξF][ξW][ξK](Boc)[ξT](tBu)[ξF]))	> 100 µM	> 100 µM	> 100 µM	–
CCCCc1ccc(Nc2nc(Cl)c3ncn(COCCOC(C)=O)c3n2)cc1	31.6 µM	29.5 µM	35.7 µM	–
NC(CSCc1ccc(I)cc1)C(=O)O (centres undefined)	> 100 µM	> 100 µM	> 100 µM	–
O=c1ccn(CC2(CO)CCCC2)c(=O)[nH]1	> 100 µM	> 100 µM	> 100 µM	–
Oc1ccc2c(c1)CCc1c-2n(CCN2CCOCC2)c2ccc(O)cc12	60.9 µM	> 100 µM	48.3 µM	–
CCCCCCCCCCCCCCCCCCNc1ccn(C2OC(COP(=O)(O)OCC3OC(n4cc(C)c(=O)[nH]c4=O)CC3F)C(O)C2O)c(=O)n1 (centres undefined)	17.9 µM	9.52 µM	45.9 µM	–
CCOC(=O)CCC(NC(=O)Cc1ccc(Nc2nc3ccccc3nc2-c2cccs2)cc1)C(=O)OCC (centres undefined)	–	> 100 µM	> 100 µM	–
CN(C)CCCC1c2ccccc2Oc2ccc(C(F)(F)F)cc21 (centres undefined)	27.6 µM	26.7 µM	28.3 µM	–
CC1=NN(c2nc(N)nc(CBr)n2)C(C)(C)C1	3.29 µM	1.78 µM	45.4 µM	–
COc1cc2nc(Nc3cccc(Br)c3)nc(Nc3cccc(Br)c3)c2cc1OC	30.1 µM	31 µM	37.5 µM	–
c1ccc2c(CN3CCN(Cc4c[nH]c5ccccc45)CC3)c[nH]c2c1	27.4 µM	31.6 µM	58 µM	–
Clc1c(Cl)c(Cl)c2c(nnn2C2CCCO2)c1Cl (centres undefined)	> 100 µM	> 100 µM	> 100 µM	–
Cc1cc(O)c2c(c1O)C(=O)c1cccc(O)c1C2=O	> 100 µM	> 100 µM	> 100 µM	–
CCOc1ccc(N/C(=C(/C(Cl)=C(/Cl)Nc2ccccc2)[N+](=O)[O-])n2nnc3ccccc32)cc1	–	62.3 µM	53.7 µM	–
NC(=O)C(=O)c1ncn(Cc2ccccc2)c1N	> 100 µM	> 100 µM	> 100 µM	–
CC(=O)Nc1ccc(NS(=O)(=O)c2ccc3nc(C)n(NS(=O)(=O)c4ccc(NC(C)=O)cc4)c(=O)c3c2)cc1	> 100 µM	> 100 µM	> 100 µM	–
CN(C)CCNc1nc2ccccc2c2c1CCCC2	38.3 µM	34.2 µM	> 100 µM	–
COc1ccc(NC(=S)N/N=C\c2ccc(NC(C)=O)cc2)cc1	> 100 µM	> 100 µM	–	–
